Patent publication US6355799B1, “Substituted benzene compounds, process for their preparation, and herbicidal and defoliant compositions containing them” (ISK Americas Incorporated, priority 1997, dated 2002)

How the values were obtained:
Type in all cases: in vivo
[1] = system: ivyleaf morningglory (Ipomoea hederacea, IPOHE); test: Post-emerge test, greenhouse herbicide activity screening; settings: post-emerge, 14 days after application, rating scale 0-100
Procedure, shortened: (§1)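 Compounds in acetone were track-sprayed at 15-1000 g ai/ha (187 l/ha) on sandy loam pots: pre-emerge one day after seeding, post-emerge at 2-3 leaf stage with 0.25% v/v non-ionic surfactant. Phytotoxicity was rated 14 days later on a 0 (no damage) to 100 (complete death) scale.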

[2] = system: barnyardgrass (Echinochloa crus-galli, ECHCG); test: as above; settings: post-emerge, 14 days after application, rating scale 0-100
Procedure, shortened: as §1

[3] = system: lambsquarters (Chenopodium album, CHEAL); test: as above; settings: post-emerge, 14 days after application, rating scale 0-100
Procedure, shortened: as §1

[4] = system: green foxtail (Setaria viridis, SETVI); test: as above; settings: post-emerge, 14 days after application, rating scale 0-100
Procedure, shortened: as §1

[5] = system: redroot pigweed (Amaranthus retroflexus, AMARE); test: as above; settings: post-emerge, 14 days after application
Procedure, shortened: as §1

[6] = system: johnsongrass (Sorghum halepense, SORHA); test: as above; settings: post-emerge, 14 days after application, rating scale 0-100
Procedure, shortened: as §1

[7] = system: large crabgrass (Digitaria sanguinalis, DIGSA); test: as above; settings: post-emerge, 14 days after application, rating scale 0-100
Procedure, shortened: as §1

[8] = system: velvetleaf (Abutilon theophrasti, ABUTH); test: as above; settings: post-emerge, 14 days after application, rating scale 0-100
Procedure, shortened: as §1

[9] = system: sicklepod (Cassia obtusifolia, CASOB); test: as above; settings: post-emerge, 14 days after application, rating scale 0-100
Procedure, shortened: as §1

[10] = system: upland rice (Oryza sp., var. Tebonnet, RICE); test: Pre-emerge test, crop safety; settings: for phytotoxicity rating RICE (crop damage): pre-emerge, 14 days after application, scale 0-100; for Pre-emerge Herbicidal Activity RICE: crop damage rating 0-100, 14 days after application
Procedure, shortened: (§2)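 Plants grown in 10 cm pots of sandy loam mix received acetone-dissolved compounds through a moving flat-fan nozzle. Doses ranged from 15 to 1000 g ai/ha. Pre-emerge pots were seeded one day earlier, post-emerge pots 8–21 days earlier. Fourteen days on, each pot was graded 0–100 for damage.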

[11] = system: field corn (Zea mays L., var. Dekalb 535, CORN); test: Pre-emerge test, crop safety; settings: for Pre-emerge Herbicidal Activity CORN: crop damage rating 0-100, 14 days after application
Procedure, shortened: as §2

[12] = system: ivyleaf morningglory (Ipomoea hederacea, IPOHE); test: Pre-emerge test, greenhouse herbicide activity screening; settings: for phytotoxicity rating IPOHE: pre-emerge, 14 days after application, scale 0-100; for Pre-emerge Herbicidal Activity IPOHE: phytotoxicity rating 0-100, 14 days after application
Procedure, shortened: (§3)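 Applied at 15–1000 g ai/ha from acetone in 187 l/ha spray volume. Post-emergence applications included 0.25% v/v non-ionic surfactant and reached plants sown 8–21 days before. Pre-emergence applications were incorporated by surface watering. Efficacy or crop damage was rated on a 0–100 scale after 14 days.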

[13] = system: barnyardgrass (Echinochloa crus-galli, ECHCG); test: as above; settings: for phytotoxicity rating ECHCG: pre-emerge, 14 days after application, scale 0-100; for Pre-emerge Herbicidal Activity ECHCG: phytotoxicity rating 0-100, 14 days after application
Procedure, shortened: as §3

[14] = system: lambsquarters (Chenopodium album, CHEAL); test: as above; settings: for phytotoxicity rating CHEAL: pre-emerge, 14 days after application, scale 0-100; for Pre-emerge Herbicidal Activity CHEAL: phytotoxicity rating 0-100, 14 days after application
Procedure, shortened: as §3

[15] = system: green foxtail (Setaria viridis, SETVI); test: as above; settings: for phytotoxicity rating SETVI: pre-emerge, 14 days after application, scale 0-100; for Pre-emerge Herbicidal Activity SETVI: phytotoxicity rating 0-100, 14 days after application
Procedure, shortened: as §3

[16] = system: johnsongrass (Sorghum halepense, SORHA); test: as above; settings: for phytotoxicity rating SORHA: pre-emerge, 14 days after application, scale 0-100; for Pre-emerge Herbicidal Activity SORHA: phytotoxicity rating 0-100, 14 days after application
Procedure, shortened: as §3

[17] = system: large crabgrass (Digitaria sanguinalis, DIGSA); test: as above; settings: for phytotoxicity rating DIGSA: pre-emerge, 14 days after application, scale 0-100; for Pre-emerge Herbicidal Activity DIGSA: phytotoxicity rating 0-100, 14 days after application
Procedure, shortened: as §3

[18] = system: velvetleaf (Abutilon theophrasti, ABUTH); test: as above; settings: for phytotoxicity rating ABUTH: pre-emerge, 14 days after application, scale 0-100; for Pre-emerge Herbicidal Activity ABUTH: phytotoxicity rating 0-100, 14 days after application
Procedure, shortened: as §3

[19] = system: sicklepod (Cassia obtusifolia, CASOB); test: as above; settings: for phytotoxicity rating CASOB: pre-emerge, 14 days after application, scale 0-100; for Pre-emerge Herbicidal Activity CASOB: phytotoxicity rating 0-100, 14 days after application
Procedure, shortened: as §3

[20] = system: redroot pigweed (Amaranthus retroflexus, AMARE); test: as above; settings: for phytotoxicity rating AMARE: pre-emerge, 14 days after application, scale 0-100; for Pre-emerge Herbicidal Activity AMARE: phytotoxicity rating 0-100, 14 days after application
Procedure, shortened: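 Visual ratings on a 0-100 scale (0 no damage, 100 all plants dead) were taken at 14 days after treatment. Rates of 15-1000 g ai/ha in acetone, 187 l/ha, were sprayed onto soil one day after planting (pre-emerge) or onto 2-3 leaf plants with 0.25% v/v surfactant (post-emerge).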

[21] = system: upland rice (Oryza sp., var. Tebonnet, RICE); test: Post-emerge test, crop safety; settings: post-emerge, 14 days after application, rating scale 0-100
Procedure, shortened: as §3

[22] = system: field corn (Zea mays L., var. Dekalb 535, CORN); test: Post-emerge test, crop safety; settings: post-emerge, 14 days after application, rating scale 0-100
Procedure, shortened: as §3

[23] = 250 g ai/ha, rating scale 0-100

COc1c(Cl)cc(F)c(-n2c(=O)cc(C(F)(F)F)n(C)c2=O)c1NC(=O)CSC [2-168]
IPOHE phytotoxicity rating ([1]; 63 g ai/ha): 60
IPOHE phytotoxicity rating ([1]; 250 g ai/ha): 100
ECHCG phytotoxicity rating ([2]; 63 g ai/ha): 0
ECHCG phytotoxicity rating ([2]; 250 g ai/ha): 0
CHEAL phytotoxicity rating ([3]; 63 g ai/ha): 30
CHEAL phytotoxicity rating ([3]; 250 g ai/ha): 50
SETVI phytotoxicity rating ([4]; 63 g ai/ha): 0
SETVI phytotoxicity rating ([4]; 250 g ai/ha): 10
AMARE phytotoxicity rating ([5]; 63 g ai/ha, rating scale 0-100): 20
AMARE phytotoxicity rating [5, 23]: 50
SORHA phytotoxicity rating ([6]; 63 g ai/ha): 0
SORHA phytotoxicity rating ([6]; 250 g ai/ha): 0
DIGSA phytotoxicity rating ([7]; 63 g ai/ha): 0
DIGSA phytotoxicity rating ([7]; 250 g ai/ha): 0
ABUTH phytotoxicity rating ([8]; 63 g ai/ha): 60
ABUTH phytotoxicity rating ([8]; 250 g ai/ha): 100
CASOB phytotoxicity rating ([9]; 63 g ai/ha): 0
CASOB phytotoxicity rating ([9]; 250 g ai/ha): 80
phytotoxicity rating RICE (crop damage) ([10]; 63 g ai/ha): 20
phytotoxicity rating RICE (crop damage) ([10]; 250 g ai/ha): 60
phytotoxicity rating CORN (crop damage) ([11]; pre-emerge, 63 g ai/ha, 14 days after application, scale 0-100): 0
phytotoxicity rating IPOHE ([12]; 63 g ai/ha): 40
phytotoxicity rating IPOHE ([12]; 250 g ai/ha): 90
phytotoxicity rating ECHCG ([13]; 63 g ai/ha): 0
phytotoxicity rating ECHCG ([13]; 250 g ai/ha): 20
phytotoxicity rating CHEAL ([14]; 63 g ai/ha): 100
phytotoxicity rating CHEAL ([14]; 250 g ai/ha): 100
phytotoxicity rating SETVI ([15]; 63 g ai/ha): 10
phytotoxicity rating SETVI ([15]; 250 g ai/ha): 95
phytotoxicity rating SORHA ([16]; 63 g ai/ha): 0
phytotoxicity rating SORHA ([16]; 250 g ai/ha): 90
phytotoxicity rating DIGSA ([17]; 63 g ai/ha): 0
phytotoxicity rating DIGSA ([17]; 250 g ai/ha): 80
phytotoxicity rating ABUTH ([18]; 63 g ai/ha): 60
phytotoxicity rating ABUTH ([18]; 250 g ai/ha): 100
phytotoxicity rating CASOB ([19]; 63 g ai/ha): 30
phytotoxicity rating CASOB ([19]; 250 g ai/ha): 80
phytotoxicity rating AMARE ([20]; 63 g ai/ha): 90
phytotoxicity rating AMARE ([20]; 250 g ai/ha): 100
RICE phytotoxicity rating (crop damage) ([21]; 63 g ai/ha): 10
RICE phytotoxicity rating (crop damage) ([21]; 250 g ai/ha): 30
CORN phytotoxicity rating (crop damage) ([22]; 63 g ai/ha): 5
CORN phytotoxicity rating (crop damage) ([22]; 250 g ai/ha): 10

Cc1c(Cl)cc(F)c(-n2c(=O)cc(C(F)(F)F)n(C)c2=O)c1NC(=O)OCc1ccccc1Cl [4-54]
phytotoxicity rating IPOHE ([1]; 63 g ai/ha): 100
phytotoxicity rating IPOHE ([1]; 250 g ai/ha): 100
phytotoxicity rating ECHCG ([2]; 63 g ai/ha): 70
phytotoxicity rating ECHCG ([2]; 250 g ai/ha): 80
phytotoxicity rating CHEAL ([3]; 63 g ai/ha): 100
phytotoxicity rating CHEAL ([3]; 250 g ai/ha): 100
phytotoxicity rating SETVI ([4]; 63 g ai/ha): 80
phytotoxicity rating SETVI ([4]; 250 g ai/ha): 90
phytotoxicity rating AMARE ([5]; 63 g ai/ha, rating scale 0-100 (0 no damage, 100 complete death)): 100
phytotoxicity rating AMARE [5, 23]: 100
phytotoxicity rating SORHA ([6]; 63 g ai/ha): 40
phytotoxicity rating SORHA ([6]; 250 g ai/ha): 70
phytotoxicity rating DIGSA ([7]; 63 g ai/ha): 30
phytotoxicity rating DIGSA ([7]; 250 g ai/ha): 60
phytotoxicity rating ABUTH ([8]; 63 g ai/ha): 100
phytotoxicity rating ABUTH ([8]; 250 g ai/ha): 100
phytotoxicity rating CASOB ([9]; 63 g ai/ha): 90
phytotoxicity rating CASOB ([9]; 250 g ai/ha): 100
Pre-emerge Herbicidal Activity RICE ([10]; 63 g ai/ha): 10
Pre-emerge Herbicidal Activity RICE ([10]; 250 g ai/ha): 60
Pre-emerge Herbicidal Activity CORN ([11]; 63 g ai/ha): 0
Pre-emerge Herbicidal Activity CORN ([11]; 250 g ai/ha): 5
Pre-emerge Herbicidal Activity IPOHE ([12]; 63 g ai/ha): 30
Pre-emerge Herbicidal Activity IPOHE ([12]; 250 g ai/ha): 70
Pre-emerge Herbicidal Activity ECHCG ([13]; 63 g ai/ha): 50
Pre-emerge Herbicidal Activity ECHCG ([13]; 250 g ai/ha): 85
Pre-emerge Herbicidal Activity CHEAL ([14]; 63 g ai/ha): 90
Pre-emerge Herbicidal Activity CHEAL ([14]; 250 g ai/ha): 100
Pre-emerge Herbicidal Activity SETVI ([15]; 63 g ai/ha): 90
Pre-emerge Herbicidal Activity SETVI ([15]; 250 g ai/ha): 100
Pre-emerge Herbicidal Activity SORHA ([16]; 63 g ai/ha): 30
Pre-emerge Herbicidal Activity SORHA ([16]; 250 g ai/ha): 80
Pre-emerge Herbicidal Activity DIGSA ([17]; 63 g ai/ha): 60
Pre-emerge Herbicidal Activity DIGSA ([17]; 250 g ai/ha): 100
Pre-emerge Herbicidal Activity ABUTH ([18]; 63 g ai/ha): 100
Pre-emerge Herbicidal Activity ABUTH ([18]; 250 g ai/ha): 90
Pre-emerge Herbicidal Activity CASOB ([19]; 63 g ai/ha): 30
Pre-emerge Herbicidal Activity CASOB ([19]; 250 g ai/ha): 80
Pre-emerge Herbicidal Activity AMARE ([20]; 63 g ai/ha): 100
Pre-emerge Herbicidal Activity AMARE ([20]; 250 g ai/ha): 100
phytotoxicity rating RICE (crop damage) ([21]; 63 g ai/ha): 90
phytotoxicity rating RICE (crop damage) ([21]; 250 g ai/ha): 100
phytotoxicity rating CORN (crop damage) ([22]; 63 g ai/ha): 40
phytotoxicity rating CORN (crop damage) ([22]; 250 g ai/ha): 75
